What was measured:
AMBEL (Ragweed, Common) = experiment: Preemergence herbicidal evaluation; assay type: in vivo, Ambrosia artemisifolia; conditions: rated 4-5 weeks after treatment
Summary of the method: (§1)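 Preemergence soil application of compound, sprayed in aqueous acetone at rates equivalent to about 0.0156 to 0.500 kg per hectare onto freshly sown cups. Plant response was judged by eye on a 0-9 scale four to five weeks later.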

CYPSE (Flatsedge) [1] = experiment: Preemergence weed control under flooded paddy conditions; assay type: in vivo, Cyperus serotinus; conditions: rated 3-4 weeks after treatment
Summary of the method: (§2)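 Using flooded silt loam (water 1.5 to 3 cm deep), seeds sown in the top 0.5 cm were exposed preemergence to compound pipetted into the flood at about 0.0313 to 0.500 kg/ha. Effects were scored 0-9 by eye three to four weeks later.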

[2] = system: CHEAL (Lambsquarters, Common); experiment: Postemergence herbicidal evaluation; assay type: in vivo, Chenopodium album
Summary of the method: (§3)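 Visual 0–9 rating versus control (stand, vigor, malformation, size, chlorosis, overall appearance), taken four to five weeks post-spray. Two-week-old seedlings received roughly 0.0156–0.500 kg/ha active in acetone/water (50/50) with 0.5% TWEEN 20 via nozzle at 40 psi.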

CYPIR (Rice Flatsedge) = experiment: Postemergence weed control under flooded paddy conditions; assay type: in vivo, Cyperus iria; conditions: postemergence weeds, 3-4 weeks after treatment
Summary of the method: (§4)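 With weeds 3 to 5 cm tall and rice at the 1.5 to 2.5 leaf stage, containers were flooded and water held 1.5 to 3 cm above soil. Compounds in 50/50 v/v aqueous/acetone went into the flood water at about 0.0313 to 0.500 kg/ha a.i. Effects were visually rated 0–9 against controls after three to four weeks in the greenhouse.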

ZEAMX (Corn, Field) = experiment: Postemergence herbicidal evaluation; assay type: in vivo, Zea mays
Summary of the method: as §3

[3] = system: GLXMAW (Soybean, Williams); experiment: Preemergence herbicidal evaluation; assay type: in vivo, Glycine max, (L.) Merr. cv Williams; conditions: rated 4-5 weeks after treatment
Summary of the method: as §1

GALAP (Galium) = experiment: Postemergence herbicidal evaluation; assay type: in vivo, Galium aparine
Summary of the method: as §3

CYPSE (Flatsedge) [4] = experiment: Postemergence weed control under flooded paddy conditions; assay type: in vivo, Cyperus serotinus; conditions: postemergence weeds, 3-4 weeks after treatment
Summary of the method: as §4

ORYSAT (Rice, Tebonnet) [5] = experiment: Preemergence herbicidal evaluation; assay type: in vivo, Oryza sativa, (L.) Tebonnet; conditions: rated 4-5 weeks after treatment
Summary of the method: as §1

[6] = system: SAGPY (Arrowhead (Pygmaea)); experiment: Postemergence weed control under flooded paddy conditions; assay type: in vivo, Sagittaria pygmaea; conditions: postemergence weeds, 3-4 weeks after treatment
Summary of the method: as §4

ORYSAT (Rice, Tebonnet) [7] = experiment: Postemergence herbicidal evaluation; assay type: in vivo, Oryza sativa, (L.) Tebonnet
Summary of the method: as §3

CASOB (Sicklepod) = experiment: Postemergence herbicidal evaluation; assay type: in vivo, Cassia obtusifolia
Summary of the method: as §3

SETVI (Foxtail, Green) = experiment: Preemergence herbicidal evaluation; assay type: in vivo, Setaria viridis; conditions: rated 4-5 weeks after treatment
Summary of the method: as §1

MOOVA (Monochoria) = experiment: Preemergence weed control under flooded paddy conditions; assay type: in vivo, Monochoria vaginalis; conditions: rated 3-4 weeks after treatment
Summary of the method: as §2

For Cn1c(C(F)(F)F)cc(=O)n(-c2cc(/N=C3/SCC(=O)N3CC(=O)O)c(Cl)cc2F)c1=O [Compound 52, 2-{{2-Chloro-5-[3,6-dihydro-3-methyl-2,6-dioxo-4-(trifluoromethyl)-1(2H)-pyrimidinyl]-4-fluoro-phenyl}imino}-4-oxo-3-thiazolidineacetic acid], the “Preemergence herbicidal rating AMBEL” value (AMBEL (Ragweed, Common); rate 0.0313 kg/ha) was 0.0, the “Preemergence herbicidal rating AMBEL” value (AMBEL (Ragweed, Common); rate 0.0625 kg/ha) was 0.0 and the “Preemergence herbicidal rating AMBEL” value (AMBEL (Ragweed, Common); rate 0.1250 kg/ha) was 2.0. For the same compound, the “Preemergence herbicidal rating AMBEL” value (AMBEL (Ragweed, Common); rate 0.2500 kg/ha) was 3.0, the “Herbicidal rating CYPSE” value (CYPSE (Flatsedge) [1]; 0.2500 kg/ha) was 0.0 and the “Postemergence herbicidal rating CHEAL” value ([2]; Rate 0.0158 kg/ha) was 4.0. For the same compound, the “Postemergence herbicidal rating CHEAL” value ([2]; Rate 0.0315 kg/ha) was 4.0, the “Postemergence herbicidal rating CHEAL” value ([2]; Rate 0.0630 kg/ha) was 6.0 and the “Herbicidal rating CYPIR” value (CYPIR (Rice Flatsedge); rate 0.2500 kg/ha) was 2.0. The “Postemergence herbicidal rating ZEAMX” value (ZEAMX (Corn, Field); Rate 0.0158 kg/ha) was 5.0, the “Postemergence herbicidal rating ZEAMX” value (ZEAMX (Corn, Field); Rate 0.0315 kg/ha) was 7.5 and the “Postemergence herbicidal rating ZEAMX” value (ZEAMX (Corn, Field); Rate 0.0630 kg/ha) was 7.0. For the same compound, the “Preemergence herbicidal rating GLXMAW” value ([3]; rate 0.0313 kg/ha) was 0.0, the “Preemergence herbicidal rating GLXMAW” value ([3]; rate 0.0625 kg/ha) was 1.0 and the “Preemergence herbicidal rating GLXMAW” value ([3]; rate 0.1250 kg/ha) was 1.0. For the same compound, the “Preemergence herbicidal rating GLXMAW” value ([3]; rate 0.2500 kg/ha) was 2.0, the “Postemergence herbicidal rating GALAP” value (GALAP (Galium); Rate 0.0158 kg/ha) was 1.0 and the “Postemergence herbicidal rating GALAP” value (GALAP (Galium); Rate 0.0315 kg/ha) was 4.0. For the same compound, the “Postemergence herbicidal rating GALAP” value (GALAP (Galium); Rate 0.0630 kg/ha) was 5.0, the “Herbicidal rating CYPSE” value (CYPSE (Flatsedge) [4]; rate 0.2500 kg/ha) was 0.0 and the “Preemergence herbicidal rating ORYSAT” value (ORYSAT (Rice, Tebonnet) [5]; rate 0.0313 kg/ha) was 0.0. The “Preemergence herbicidal rating ORYSAT” value (ORYSAT (Rice, Tebonnet) [5]; rate 0.0625 kg/ha) was 0.0, the “Preemergence herbicidal rating ORYSAT” value (ORYSAT (Rice, Tebonnet) [5]; rate 0.1250 kg/ha) was 0.0 and the “Preemergence herbicidal rating ORYSAT” value (ORYSAT (Rice, Tebonnet) [5]; rate 0.2500 kg/ha) was 4.0. For the same compound, the “Herbicidal rating SAGPY” value ([6]; rate 0.2500 kg/ha) was 0.0, the “Postemergence herbicidal rating ORYSAT” value (ORYSAT (Rice, Tebonnet) [7]; Rate 0.0158 kg/ha) was 1.0 and the “Postemergence herbicidal rating ORYSAT” value (ORYSAT (Rice, Tebonnet) [7]; Rate 0.0315 kg/ha) was 1.0. The “Postemergence herbicidal rating ORYSAT” value (ORYSAT (Rice, Tebonnet) [7]; Rate 0.0630 kg/ha) was 2.0, the “Postemergence herbicidal rating CASOB” value (CASOB (Sicklepod); Rate 0.0158 kg/ha) was 1.0 and the “Postemergence herbicidal rating CASOB” value (CASOB (Sicklepod); Rate 0.0315 kg/ha) was 1.0. For the same compound, the “Postemergence herbicidal rating CASOB” value (CASOB (Sicklepod); Rate 0.0630 kg/ha) was 2.0, the “Preemergence herbicidal rating SETVI” value (SETVI (Foxtail, Green); rate 0.0313 kg/ha) was 0.0 and the “Preemergence herbicidal rating SETVI” value (SETVI (Foxtail, Green); rate 0.0625 kg/ha) was 0.0. For the same compound, the “Preemergence herbicidal rating SETVI” value (SETVI (Foxtail, Green); rate 0.1250 kg/ha) was 1.0, the “Preemergence herbicidal rating SETVI” value (SETVI (Foxtail, Green); rate 0.2500 kg/ha) was 9.0 and the “Herbicidal rating MOOVA” value (MOOVA (Monochoria); 0.2500 kg/ha) was 4.0.

For Cn1c(C(F)(F)F)cc(=O)n(-c2cc(N=C3SCC(=O)N3[C@@H](Cc3ccccc3)C(=O)O)c(Cl)cc2F)c1=O [Compound 53, α-Benzyl-2-{{2-chloro-5-[3,6-dihydro-3-methyl-2,6-dioxo-4-(trifluoromethyl)-1(2H)-pyrimidinyl]-4-fluorophenyl}imino}-4-oxo-3-thiazolidineacetic acid, L-], the “Preemergence herbicidal rating AMBEL” value (AMBEL (Ragweed, Common); rate 0.0313 kg/ha) was 0.0, the “Preemergence herbicidal rating AMBEL” value (AMBEL (Ragweed, Common); rate 0.0625 kg/ha) was 9.0 and the “Preemergence herbicidal rating AMBEL” value (AMBEL (Ragweed, Common); rate 0.1250 kg/ha) was 9.0. For the same compound, the “Preemergence herbicidal rating AMBEL” value (AMBEL (Ragweed, Common); rate 0.2500 kg/ha) was 9.0, the “Herbicidal rating CYPSE” value (CYPSE (Flatsedge) [1]; 0.0313 kg/ha) was 0.0 and the “Herbicidal rating CYPSE” value (CYPSE (Flatsedge) [1]; 0.0625 kg/ha) was 0.0. The “Herbicidal rating CYPSE” value (CYPSE (Flatsedge) [1]; 0.1250 kg/ha) was 0.0, the “Herbicidal rating CYPSE” value (CYPSE (Flatsedge) [1]; 0.2500 kg/ha) was 0.0 and the “Postemergence herbicidal rating CHEAL” value ([2]; Rate 0.0158 kg/ha) was 7.0. For the same compound, the “Postemergence herbicidal rating CHEAL” value ([2]; Rate 0.0315 kg/ha) was 9.0, the “Postemergence herbicidal rating CHEAL” value ([2]; Rate 0.0630 kg/ha) was 9.0 and the “Herbicidal rating CYPIR” value (CYPIR (Rice Flatsedge); rate 0.0313 kg/ha) was 2.0. The “Herbicidal rating CYPIR” value (CYPIR (Rice Flatsedge); rate 0.0625 kg/ha) was 2.0, the “Herbicidal rating CYPIR” value (CYPIR (Rice Flatsedge); rate 0.1250 kg/ha) was 9.0 and the “Herbicidal rating CYPIR” value (CYPIR (Rice Flatsedge); rate 0.2500 kg/ha) was 9.0. The “Postemergence herbicidal rating ZEAMX” value (ZEAMX (Corn, Field); Rate 0.0158 kg/ha) was 5.5, the “Postemergence herbicidal rating ZEAMX” value (ZEAMX (Corn, Field); Rate 0.0315 kg/ha) was 7.5 and the “Postemergence herbicidal rating ZEAMX” value (ZEAMX (Corn, Field); Rate 0.0630 kg/ha) was 8.0. The “Preemergence herbicidal rating GLXMAW” value ([3]; rate 0.0313 kg/ha) was 0.0, the “Preemergence herbicidal rating GLXMAW” value ([3]; rate 0.0625 kg/ha) was 0.0 and the “Preemergence herbicidal rating GLXMAW” value ([3]; rate 0.1250 kg/ha) was 2.0. The “Preemergence herbicidal rating GLXMAW” value ([3]; rate 0.2500 kg/ha) was 4.0, the “Postemergence herbicidal rating GALAP” value (GALAP (Galium); Rate 0.0158 kg/ha) was 3.0 and the “Postemergence herbicidal rating GALAP” value (GALAP (Galium); Rate 0.0315 kg/ha) was 7.0. The “Postemergence herbicidal rating GALAP” value (GALAP (Galium); Rate 0.0630 kg/ha) was 9.0, the “Herbicidal rating CYPSE” value (CYPSE (Flatsedge) [4]; rate 0.0313 kg/ha) was 0.0 and the “Herbicidal rating CYPSE” value (CYPSE (Flatsedge) [4]; rate 0.0625 kg/ha) was 0.0. The “Herbicidal rating CYPSE” value (CYPSE (Flatsedge) [4]; rate 0.1250 kg/ha) was 0.0, the “Herbicidal rating CYPSE” value (CYPSE (Flatsedge) [4]; rate 0.2500 kg/ha) was 0.0 and the “Preemergence herbicidal rating ORYSAT” value (ORYSAT (Rice, Tebonnet) [5]; rate 0.0313 kg/ha) was 0.0. The “Preemergence herbicidal rating ORYSAT” value (ORYSAT (Rice, Tebonnet) [5]; rate 0.0625 kg/ha) was 1.0, the “Preemergence herbicidal rating ORYSAT” value (ORYSAT (Rice, Tebonnet) [5]; rate 0.1250 kg/ha) was 5.0 and the “Preemergence herbicidal rating ORYSAT” value (ORYSAT (Rice, Tebonnet) [5]; rate 0.2500 kg/ha) was 7.0. The “Herbicidal rating SAGPY” value ([6]; rate 0.0313 kg/ha) was 0.0, the “Herbicidal rating SAGPY” value ([6]; rate 0.0625 kg/ha) was 0.0 and the “Herbicidal rating SAGPY” value ([6]; rate 0.1250 kg/ha) was 0.0. The “Herbicidal rating SAGPY” value ([6]; rate 0.2500 kg/ha) was 0.0, the “Postemergence herbicidal rating ORYSAT” value (ORYSAT (Rice, Tebonnet) [7]; Rate 0.0158 kg/ha) was 2.0 and the “Postemergence herbicidal rating ORYSAT” value (ORYSAT (Rice, Tebonnet) [7]; Rate 0.0315 kg/ha) was 2.5. For the same compound, the “Postemergence herbicidal rating ORYSAT” value (ORYSAT (Rice, Tebonnet) [7]; Rate 0.0630 kg/ha) was 3.5, the “Postemergence herbicidal rating CASOB” value (CASOB (Sicklepod); Rate 0.0158 kg/ha) was 4.0 and the “Postemergence herbicidal rating CASOB” value (CASOB (Sicklepod); Rate 0.0315 kg/ha) was 7.0. For the same compound, the “Postemergence herbicidal rating CASOB” value (CASOB (Sicklepod); Rate 0.0630 kg/ha) was 9.0, the “Preemergence herbicidal rating SETVI” value (SETVI (Foxtail, Green); rate 0.0313 kg/ha) was 1.0 and the “Preemergence herbicidal rating SETVI” value (SETVI (Foxtail, Green); rate 0.0625 kg/ha) was 4.0. The “Preemergence herbicidal rating SETVI” value (SETVI (Foxtail, Green); rate 0.1250 kg/ha) was 7.0, the “Preemergence herbicidal rating SETVI” value (SETVI (Foxtail, Green); rate 0.2500 kg/ha) was 9.0 and the “Herbicidal rating MOOVA” value (MOOVA (Monochoria); 0.0313 kg/ha) was 2.0. The “Herbicidal rating MOOVA” value (MOOVA (Monochoria); 0.0625 kg/ha) was 2.0, the “Herbicidal rating MOOVA” value (MOOVA (Monochoria); 0.1250 kg/ha) was 9.0 and the “Herbicidal rating MOOVA” value (MOOVA (Monochoria); 0.2500 kg/ha) was 9.0.
